Reference: ChEMBL document CHEMBL1150462, “Synthesis of 2-O-substituted -D-Gal-(14)--D-GlcNAc-1-0-Bn as specific acceptors for -L-(13) fucosyltransferases” (1992)

Key:
[1] = Kinetic constant of the enzyme activity was determined by incorporation of [14C]- fucose as a function of acceptor concentration
Homo sapiens [2] = organism: Homo sapiens; test: Percentage of fucosyltransferase accepted by the compound in alpha-L-(1-3) fucosyltransferase assay using [14C]fucose as a ligand;=; format: functional
Homo sapiens [3] = organism: Homo sapiens; test: Relative activity was determined at 0.3 mM of compound in ovarian cancer sera in alpha-L-(1-3) fucosyltransferase assay using [14C]-fucose as a ligand; format: functional
Ovarian carcinoma cell [4] = test: Percentage of fucosyltransferase accepted by the compound in alpha-L-(1-3) fucosyltransferase assay using [14C]-fucose as a ligand; format: functional, Homo sapiens
Ovarian carcinoma cell [5] = test: Relative activity was determined at 0.3 mM of compound in ovarian-tumor extract in alpha-L-(1-3) fucosyltransferase assay using [14C]fucose as a ligand; format: functional, Homo sapiens
Homo sapiens [6] = organism: Homo sapiens; test: (§1) Percentage of fucosyltransferase accepted by the compound in alpha-L-(1-3) fucosyltransferase assay using [14C]fucose as a ligand; format: functional
Ovarian carcinoma cell [7] = test: as §1; format: functional, Homo sapiens

Structure (SMILES)	Km [1] [µM]	Relative activity (Homo sapiens [2]) [%]	Relative activity (Homo sapiens [3]) [c.p.m.]	Relative activity (Ovarian carcinoma cell [4]) [%]	Relative activity (Ovarian carcinoma cell [5]) [c.p.m.]	Relative activity (Homo sapiens [6]) [%]	Relative activity (Ovarian carcinoma cell [7]) [%]
CC(=O)N[C@H]1[C@H](OCc2ccccc2)O[C@H](CO)[C@@H](O[C@@H]2O[C@H](CO)[C@H](O)[C@H](O)[C@H]2O[C@@H]2O[C@@H](C)[C@@H](O)[C@@H](O)[C@@H]2O)[C@@H]1O	260	168	7350	233	42580		
CC(=O)N[C@@H]1[C@@H](O)[C@H](O[C@@H]2O[C@H](CO)[C@H](O)[C@H](O)[C@H]2O[C@@H]2O[C@@H](C)[C@@H](O)[C@@H](O)[C@@H]2O)[C@@H](CO)O[C@H]1O			4380		18291	100	100
CC(=O)N[C@@H]1[C@@H](O)[C@H](O[C@@H]2O[C@H](CO)[C@H](O)[C@H](O)[C@H]2O)[C@@H](CO)O[C@H]1O			1620		5024		
CO[C@H]1[C@H](O[C@H]2[C@H](O)[C@@H](NC(C)=O)[C@H](OCc3ccccc3)O[C@@H]2CO)O[C@H](CO)[C@H](O)[C@@H]1O	440		5330		14924	308	375
CO[C@H]1[C@H](O[C@H]2[C@H](O)[C@@H](NC(C)=O)C(O)O[C@@H]2CO)O[C@H](CO)[C@H](O)[C@@H]1O (stereo partly specified)	1330		1730	100	3977	100	
